Reference: ChEMBL document CHEMBL1138147, “Respiratory syncytial virus fusion inhibitors. Part 3: Water-soluble benzimidazol-2-one derivatives with antiviral activity in vivo” (Bioorg Med Chem Lett, 2006)

Key:
HEp-2 = assay: Cytotoxicity against human Hep2 cells infected with RSV Long strain; assay type: functional
[1] = Therapeutic index (CC50/EC50) for RSV infected Hep2 cells; assay type: cell-based, HEp-2; settings: human, read-out: Ratio CC50/EC50
[2] = system: Respiratory syncytial virus; assay: Antiviral activity against RSV Long strain in human Hep2 cells; assay type: functional, organism-based; settings: HEp-2
Mus musculus = assay: Efficacy in BALB/c mouse measured as reduction in log TCID50 of RSV per gram of lung at 90 mg/kg, sc; assay type: functional; settings: route subcutaneous
Cotton rat [3] = assay: Efficacy in cotton rat measured as reduction in log TCID50 of RSV per gram of lung at 90 mg/kg, ip; assay type: functional, Sigmodon; settings: route intraperitoneal
Cotton rat [4] = assay: Efficacy in cotton rat measured as reduction in log TCID50 of RSV per gram of lung at 1.33 mg/mL; assay type: functional, organism-based; settings: Sigmodon
Cotton rat [5] = assay: Efficacy in cotton rat measured as reduction in log TCID50 of RSV per gram of lung at 0.5 mg/mL; assay type: functional, Sigmodon
Cotton rat [6] = assay: Efficacy in cotton rat measured as reduction in log TCID50 of RSV per gram of lung at 2.0 mg/mL; assay type: functional, Sigmodon

Row | Compound | CC50 (HEp-2) [nM] | selectivity ratio [1] | EC50 [2] [nM] | other results
1 | CC(C)CCn1c(Cn2c(=O)n(CCCN(C)C)c3ccccc32)nc2ccccc21 | 5300 | 18 | 292 | 
2 | NC(=O)c1ncn([C@@H]2O[C@H](CO)[C@@H](O)[C@H]2O)n1 [RIBAVIRIN] |  |  |  | Efficacy (Mus musculus): 1.86; Efficacy (Cotton rat [3]): 2.5
3 | C=C(C)n1c(=O)n(Cc2nc3ccccc3n2CCCN(C)C)c2ccccc21 | 19900 | 265 | 75 | 
4 | CC(C)CCn1c(Cn2c(=O)n(CCCS(=O)(=O)O)c3ccccc32)nc2ccccc21 | 114000 | 3010 | 38 | 
5 | COc1ccc(Cn2c(=O)n(Cc3nc4ccccc4[nH]3)c3ccccc32)cc1 | 41100 | 123 | 333 | 
6 | CC(C)CCn1c(Cn2c(=O)n(Cc3nn[nH]n3)c3ccccc32)nc2ccccc21 | > 210000 | > 420 | 500 | 
7 | C=C(C)n1c(=O)n(Cc2nc3ccccc3n2CCc2nnn[nH]2)c2ccccc21 | > 249000 |  | 8 | Activity (Cotton rat [4]): Toxic
8 | CN(C)CCCn1c(Cn2c(O)nc3ccccc32)nc2ccccc21 | 89100 | 53 | 1660 | 
9 | CC(C)CCn1c(Cn2c(=O)n(Cc3cc(C(=O)O)cc(C(=O)O)c3)c3ccccc32)nc2ccccc21 | > 168000 | > 256 | 656 | 
10 | CC(C)CCn1c(Cn2c(=O)n(CCCCCC(=O)O)c3ccccc32)nc2ccccc21 | 16500 | 1100 | 15 | 
11 | CC(C)CCn1c(Cn2c(=O)n(CCCCc3nnn[nH]3)c3ccccc32)nc2ccccc21 | 14900 | 993 | 15 | 
12 | O=C(O)c1cccc(Cn2c(=O)n(Cc3nc4ccccc4[nH]3)c3ccccc32)c1 | > 194000 | 6430 | 7 | 
13 | CC(C)CCn1c(Cn2c(=O)n(Cc3ccc(C(=O)N[C@@H](CP(=O)(O)O)C(=O)O)cc3)c3ccccc32)nc2ccccc21 | > 114000 | > 3350 | 34 | Efficacy (Cotton rat [5]): 2.43
14 | CC(C)CCn1c(Cn2c(=O)n(Cc3ccccc3C(=O)O)c3ccccc32)nc2ccccc21 | 15700 | 1430 | 11 | 
15 | C=C(C)n1c(=O)n(Cc2nc3ccccc3n2CCc2nn[nH]n2)c2ccccc21 |  | 14600 |  | 
16 | CC(C)CCn1c(Cn2c(=O)n(CC(=O)NS(=O)(=O)c3ccccc3)c3ccccc32)nc2ccccc21 | 14100 | 12 | 1210 | 
17 | O=c1n(Cc2ccc(P(=O)(O)O)cc2)c2ccccc2n1Cc1nc2ccccc2[nH]1 | > 174000 | > 473 | 368 | 
18 | O=C(O)Cn1c(=O)n(Cc2nc3ccccc3n2CCCO)c2ccccc21 | 229000 | 119 | 1930 | 
19 | CC(C)CCn1c(Cn2c(=O)n(Cc3ccc(C(=O)O)cc3)c3ccccc32)nc2ccccc21 | 27300 | 2480 | 11 | 
20 | O=C(O)Cn1c(=O)n(Cc2nc3ccccc3[nH]2)c2ccccc21 | 20600 | 133 | 155 | 
21 | CC(C)CCn1c(Cn2c(=O)n(CCCCS(=O)(=O)O)c3ccccc32)nc2ccccc21 | 2900 | 56 | 52 | 
22 | CC(C)CCn1c(Cn2c(=O)n(Cc3ccc(CP(=O)(O)O)cc3)c3ccccc32)nc2ccccc21 | 2800 | 55 | 51 | 
23 | O=c1n(Cc2ccccc2)c2ccccc2n1Cc1nc2ccccc2[nH]1 | 129000 | 1130 | 114 | 
24 | CC(C)CCn1c(Cn2c(=O)n(Cc3cccc(C(=O)O)c3)c3ccccc32)nc2ccccc21 | 10700 | 1070 | 10 | 

Row | Compound | CC50 (HEp-2) [nM] | selectivity ratio [1] | EC50 [2] [nM] | other results
25 | CC(C)CCn1c(Cn2c(=O)n(Cc3ccc(C(=O)N[C@@H](CC(=O)O)C(=O)O)cc3)c3ccccc32)nc2ccccc21 | > 144000 | > 28800 | 5 | Efficacy (Cotton rat [6]): 2.6
26 | O=C(O)c1ccc(Cn2c(=O)n(Cc3nc4ccccc4n3CCCO)c3ccccc32)cc1 | 210000 | 4280 | 49 | 
27 | CC(C)CCn1c(Cn2c(=O)n(CCCC(=O)O)c3ccccc32)nc2ccccc21 | 138000 | 1840 | 75 | 
28 | CC(C)CCn1c(Cn2c(=O)n(Cc3ccccc3C(=O)N[C@@H](CC(=O)O)C(=O)O)c3ccccc32)nc2ccccc21 | 154000 | ≥ 25700 | 6 | 
29 | C=C(C)n1c(=O)n(Cc2nc3ccccc3n2CCCc2nnn[nH]2)c2ccccc21 | > 330 | > 23 | 14 | 
30 | Cn1c(=O)n(Cc2nc3ccccc3[nH]2)c2ccccc21 | > 202000 | > 340 | 593 | 
31 | CC(C)CCn1c(Cn2c(=O)n(CC(=O)NS(C)(=O)=O)c3ccccc32)nc2ccccc21 | 152000 | 247 | 613 | 
32 | O=C(O)c1ccc(Cn2c(=O)n(Cc3nc4ccccc4n3CCCCO)c3ccccc32)cc1 | > 196000 | > 49000 | 4 | 
33 | CC(C)CCn1c(Cn2c(=O)n(CCCCCc3nnn[nH]3)c3ccccc32)nc2ccccc21 | 90000 | 6920 | 13 | Activity (Cotton rat [6]; Sigmodon): Toxic
34 | Oc1nc2ccccc2n1Cc1nc2ccccc2[nH]1 | 228000 | 226 | 1010 | 
35 | CC(C)CCn1c(Cn2c(=O)n(CCN(C)C)c3ccccc32)nc2ccccc21 | 10000 | 25 | 400 | 
36 | C=C(C)n1c(=O)n(Cc2nc3ccccc3n2Cc2nn[nH]n2)c2ccccc21 | 181000 | 21 | 8440 | 
37 | CC(C)CCn1c(Cn2c(=O)n(CCCCC(=O)O)c3ccccc32)nc2ccccc21 | 16500 | 2060 | 8 | 
38 | CC(C)CCn1c(Cn2c(=O)n(CC(=O)O)c3ccccc32)nc2ccccc21 | 194000 |  | 163 | 
39 | O=c1n(Cc2nc3ccccc3[nH]2)c2ccccc2n1Cc1ccccc1S(=O)(=O)O | 130000 | 9970 | 13 | 
40 | O=c1n(Cc2ccc(O)cc2)c2ccccc2n1Cc1nc2ccccc2[nH]1 | 58700 | 932 | 63 | 
41 | CCOP(=O)(O)c1ccc(Cn2c(=O)n(Cc3nc4ccccc4n3CCC(C)C)c3ccccc32)cc1 | > 180000 | > 3350 | 48 | 
42 | O=C(O)CN(CC(=O)O)C(=O)c1ccc(Cn2c(=O)n(Cc3nc4ccccc4n3CCCCO)c3ccccc32)cc1 | 112000 | 1960 | 57 | 
43 | CC(C)CCn1c(Cn2c(=O)n(Cc3ccc(Cn4c(=O)ccn(CC(=O)O)c4=O)cc3)c3ccccc32)nc2ccccc21 | > 159000 | > 53000 | 3 | 
44 | CC(C)CCn1c(Cn2c(=O)n(CCC(=O)O)c3ccccc32)nc2ccccc21 | 102000 | 6810 | 15 | 
45 | CC(C)CCn1c(Cn2c(=O)n(CCCc3nnn[nH]3)c3ccccc32)nc2ccccc21 | 37100 | 158 | 235 | 
46 | Oc1nc2ccccc2n1Cc1nc2ccccc2n1CCn1cnnn1 | 92000 | 77 | 1200 | 
47 | CC(C)n1c(=O)n(Cc2nc3ccccc3n2CCc2nnn[nH]2)c2ccccc21 | 177000 | 11800 | 15 | 
